Source: patent publication US5994629A, “Positive selection” (priority 1991, dated 1999)
Counter-ions that a name gives are not always drawn. Like-named read-outs stand apart in the source and are kept apart here.

Columns and labels:
potato stem segments = test: Carbohydrate sources, potato stem segments, 9 weeks; type: cell-based; details: 5 g/l, 9 weeks; for activity at 5000 µg/mL: Solanum tuberosum
Excerpt: Similar results are observed with potato stem segments after 9 weeks of culturing.

[1] = system: leaf discs of tobacco without (GUS-) introduced β-glucuronidase genes; type: cell-based, Nicotiana tabacum 'Wisconsin 38'; details: test compounds at several concentrations up to 250 μM in MSO
[2] = system: leaf discs of tobacco with (GUS+) introduced β-glucuronidase genes; type: cell-based, Nicotiana tabacum 'Wisconsin 38'; details: test compounds at several concentrations up to 250 μM in MSO
[3] = biological target: β-glucuronidase from E. coli (Escherichia coli, UniProt P05804); test: Hydrolysis by β-glucuronidase (GUS), HPLC/TLC; type: biochemical
Sequence of β-glucuronidase from E. coli (P05804 whole entry, looked up): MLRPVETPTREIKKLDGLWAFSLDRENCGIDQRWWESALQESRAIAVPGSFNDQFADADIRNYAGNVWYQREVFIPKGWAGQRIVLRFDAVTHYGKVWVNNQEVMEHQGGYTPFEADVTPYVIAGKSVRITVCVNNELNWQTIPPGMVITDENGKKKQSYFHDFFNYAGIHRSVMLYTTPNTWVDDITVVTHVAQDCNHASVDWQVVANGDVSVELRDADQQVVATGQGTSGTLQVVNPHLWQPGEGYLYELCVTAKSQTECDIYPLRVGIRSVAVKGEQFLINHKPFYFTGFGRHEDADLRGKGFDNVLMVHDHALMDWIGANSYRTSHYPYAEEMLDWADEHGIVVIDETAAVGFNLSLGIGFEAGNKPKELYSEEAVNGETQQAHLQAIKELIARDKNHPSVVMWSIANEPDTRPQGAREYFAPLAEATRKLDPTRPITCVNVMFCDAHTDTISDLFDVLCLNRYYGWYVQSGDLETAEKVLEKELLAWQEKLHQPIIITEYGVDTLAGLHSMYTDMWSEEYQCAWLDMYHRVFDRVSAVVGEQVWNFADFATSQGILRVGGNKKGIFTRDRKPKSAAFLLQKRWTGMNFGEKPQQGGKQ
Protocol: […] […] This confirms the identity of the product as a conjugate of BA and β-D-glucuronic acid.
[…] The presence of hydrolysis products is then determined using HPLC and TLC.

explants = test: Inhibition of the toxicity of mannose by methyl-3-O-glucose; type: cell-based
Excerpt: Example 25 is repeated except that the selection/regeneration substrate is supplemented with methyl 3-0-glucose (MOG) at the concentrations indicated in Table 25. The percentage of live explants is registered after 8 weeks.

[4] = system: plant material transgenic for the mannose 6-phosphate isomerase gene; test: Effect of methyl-3-O-glucose on selection of transgenic shoots on mannose; type: cell-based; details: mannose 15 g/l, no sucrose
Excerpt: The transformed plant material is transgenic for the mannose 6-phosphate isomerase gene. After 21 days the selected shoots are harvested.

Wild type explants = test: Shoot regeneration on mannose, sucrose and methyl-3-O-glucose, wild type; type: cell-based; details: Wild type
[5] = system: explants transgenic for the mannose 6-phosphate isomerase gene; test: Shoot regeneration on mannose, sucrose and methyl-3-O-glucose, Man-6-P-isomerase; type: cell-based; details: Man-6-P-isomerase
[6] = system: plant material transgenic for the mannose 6-phosphate isomerase gene; test: Selection on mannose together with phloridzin; type: cell-based; details: 0.5 g/l phloridzin
Excerpt: The transformed plant material is transgenic for the mannose 6-phosphate isomerase gene. After 21 days the selected shoots are harvested. […] Example 29 is repeated except that MOG is substituted by phloridzin. […] This is an example of how cross feeding and the production of escapers can be minimized by the addition of a carbohydrate transport inhibitor.

[7] = MOG 2.5, mannose 0 g/l, sucrose 10 g/l
[8] = MOG 2.5, mannose 5 g/l, sucrose 0 g/l
[9] = MOG 2.5, mannose 5 g/l, sucrose 10 g/l
[10] = MOG 2.5, mannose 10 g/l, sucrose 0 g/l
[11] = MOG 2.5, mannose 10 g/l, sucrose 10 g/l
[12] = MOG 2.5, mannose 20 g/l, sucrose 0 g/l
[13] = MOG 2.5, mannose 20 g/l, sucrose 10 g/l
[14] = MOG 5.0, mannose 0 g/l, sucrose 0 g/l
[15] = MOG 5.0, mannose 0 g/l, sucrose 10 g/l
[16] = MOG 5.0, mannose 5 g/l, sucrose 0 g/l
[17] = MOG 5.0, mannose 5 g/l, sucrose 10 g/l
[18] = MOG 5.0, mannose 10 g/l, sucrose 0 g/l
[19] = MOG 5.0, mannose 10 g/l, sucrose 10 g/l
[20] = MOG 5.0, mannose 20 g/l, sucrose 0 g/l
[21] = MOG 5.0, mannose 20 g/l, sucrose 10 g/l
[22] = mannose 5.0 g/l, first '+ Sucrose' column
[23] = mannose 5.0 g/l, second '+ Sucrose' column
[24] = mannose 7.5 g/l, first '+ Sucrose' column
[25] = mannose 7.5 g/l, second '+ Sucrose' column
[26] = mannose 10.0 g/l, first '+ Sucrose' column
[27] = mannose 10.0 g/l, second '+ Sucrose' column
[28] = mannose 12.5 g/l, first '+ Sucrose' column
[29] = mannose 15.0 g/l, first '+ Sucrose' column

## O=C(CO)[C@@H](O)[C@H](O)CO [D-xylulose]
Potato stem segments
  # of Shoots per explant: 2.2
Potato stem segments; read-out: Size % of control
  activity at 5000 µg/mL: 74%
Potato stem segments; read-out: explants alive % of control
  activity at 5000 µg/mL: 58%

## O=C(O)[C@H]1OC(O)[C@H](O)[C@@H](O)[C@@H]1O (some centres unmarked) [Glucuronic acid]
[1]
  Shoot formation, GUS-: - ("-" means no shoot formation at concentrations below 250 μM)
[2]
  Shoot formation, GUS+: - ("-" means no shoot formation at concentrations below 250 μM)

## CC(C)=CCNc1ncn([C@@H]2O[C@H](C(=O)[O-])[C@@H](O)[C@H](O)[C@H]2O)c2ncnc1-2.[Na+] [IP3GN sodium salt, 3-β-D-glucopyranuronosyl-6-(3-methyl-but-2-enylamino)purine, sodium salt]
[3]; 50 mM sodium phosphate buffer pH 7.0, 37° C., HPLC/TLC
  Hydrolysis by β-glucuronidase (GUS), result in words: removal of the UV spot corresponding to IP3GN
[1]
  Shoot formation, GUS-: + ("+" means shoot formation at concentrations below 250 μM)
[2]
  Shoot formation, GUS+: + ("+" means shoot formation at concentrations below 250 μM)

## CC(C)=CCNc1ncnc2[nH]c(S[C@@H]3O[C@H](C(=O)O)[C@@H](O)[C@H](O)[C@H]3O)nc12 [IP8SGN sodium salt, 6-(3-methyl-but-2-enylamino)purine-8-yl-1-thio-β-D-glucopyranuronic acid, sodium salt]
[3]; 1 mg/ml, 2500 units GUS, 24 hours, 37° C., TLC
  conversion to the aglycone by GUS: > 95%
[1]
  Shoot formation, GUS-: + ("+" means shoot formation at concentrations below 250 μM)
[2]
  Shoot formation, GUS+: + ("+" means shoot formation at concentrations below 250 μM)

## CO[C@H]1[C@H](O)[C@@H](CO)OC(O)[C@@H]1O (some centres unmarked) [MOG, methyl 3-0-glucose]
explants; MOG 5 g/l, mannose 0 g/l, sucrose 0 g/l
  percentage of live explants: 13
explants; MOG 5 g/l, mannose 0 g/l, sucrose 10 g/l
  percentage of live explants: 100
explants; MOG 5 g/l, mannose 5 g/l, sucrose 0 g/l
  percentage of live explants: 54
explants; MOG 5 g/l, mannose 5 g/l, sucrose 10 g/l
  percentage of live explants: 100
explants; MOG 5 g/l, mannose 10 g/l, sucrose 0 g/l
  percentage of live explants: 0
explants; MOG 5 g/l, mannose 10 g/l, sucrose 10 g/l
  percentage of live explants: 5
explants; MOG 10 g/l, mannose 0 g/l, sucrose 0 g/l
  percentage of live explants: 47
explants; MOG 10 g/l, mannose 0 g/l, sucrose 10 g/l
  percentage of live explants: 100
explants; MOG 10 g/l, mannose 5 g/l, sucrose 0 g/l
  percentage of live explants: 82
explants; MOG 10 g/l, mannose 5 g/l, sucrose 10 g/l
  percentage of live explants: 100
explants; MOG 10 g/l, mannose 10 g/l, sucrose 0 g/l
  percentage of live explants: 9
explants; MOG 10 g/l, mannose 10 g/l, sucrose 10 g/l
  percentage of live explants: 41
explants; MOG 20 g/l, mannose 0 g/l, sucrose 0 g/l
  percentage of live explants: 50
explants; MOG 20 g/l, mannose 0 g/l, sucrose 10 g/l
  percentage of live explants: 100
explants; MOG 20 g/l, mannose 5 g/l, sucrose 0 g/l
  percentage of live explants: 98
explants; MOG 20 g/l, mannose 5 g/l, sucrose 10 g/l
  percentage of live explants: 100
explants; MOG 20 g/l, mannose 10 g/l, sucrose 0 g/l
  percentage of live explants: 88
explants; MOG 20 g/l, mannose 10 g/l, sucrose 10 g/l
  percentage of live explants: 100
[4]; MOG 2.5 g/l
  GUS+ shoots/explant: 0.2
  GUS+ shoots/sel. shoots (%): 57%
[4]; MOG 5.0 g/l
  GUS+ shoots/explant: 1.0
  GUS+ shoots/sel. shoots (%): 81%
[4]; MOG 10 g/l
  GUS+ shoots/explant: 0.5
  GUS+ shoots/sel. shoots (%): 89%
[4]; MOG 15 g/l
  GUS+ shoots/explant: 0.6
  GUS+ shoots/sel. shoots (%): 53%
Wild type explants; MOG 2.5, mannose 0 g/l, sucrose 0 g/l, 11 weeks
  regenerated shoots as a percentage of shoots on substrates without mannose and methyl-3-0-glucose: 0
Wild type explants; [7]
  regenerated shoots as a percentage of shoots on substrates without mannose and methyl-3-0-glucose: 53
Wild type explants; [8]
  regenerated shoots as a percentage of shoots on substrates without mannose and methyl-3-0-glucose: 0
Wild type explants; [9]
  regenerated shoots as a percentage of shoots on substrates without mannose and methyl-3-0-glucose: 6
Wild type explants; [10]
  regenerated shoots as a percentage of shoots on substrates without mannose and methyl-3-0-glucose: 0
Wild type explants; [11]
  regenerated shoots as a percentage of shoots on substrates without mannose and methyl-3-0-glucose: 0
Wild type explants; [12]
  regenerated shoots as a percentage of shoots on substrates without mannose and methyl-3-0-glucose: 0
Wild type explants; [13]
  regenerated shoots as a percentage of shoots on substrates without mannose and methyl-3-0-glucose: 0
Wild type explants; [14]
  regenerated shoots as a percentage of shoots on substrates without mannose and methyl-3-0-glucose: 0
Wild type explants; [15]
  regenerated shoots as a percentage of shoots on substrates without mannose and methyl-3-0-glucose: 17
Wild type explants; [16]
  regenerated shoots as a percentage of shoots on substrates without mannose and methyl-3-0-glucose: 0
Wild type explants; [17]
  regenerated shoots as a percentage of shoots on substrates without mannose and methyl-3-0-glucose: 41
Wild type explants; [18]
  regenerated shoots as a percentage of shoots on substrates without mannose and methyl-3-0-glucose: 0
Wild type explants; [19]
  regenerated shoots as a percentage of shoots on substrates without mannose and methyl-3-0-glucose: 0
Wild type explants; [20]
  regenerated shoots as a percentage of shoots on substrates without mannose and methyl-3-0-glucose: 0
Wild type explants; [21]
  regenerated shoots as a percentage of shoots on substrates without mannose and methyl-3-0-glucose: 0
[5]; MOG 2.5, mannose 0 g/l, sucrose 0 g/l
  regenerated shoots as a percentage of shoots on substrates without mannose and methyl-3-0-glucose: 0
[5]; [7]
  regenerated shoots as a percentage of shoots on substrates without mannose and methyl-3-0-glucose: 0
[5]; [8]
  regenerated shoots as a percentage of shoots on substrates without mannose and methyl-3-0-glucose: 7
[5]; [9]
  regenerated shoots as a percentage of shoots on substrates without mannose and methyl-3-0-glucose: 64
[5]; [10]
  regenerated shoots as a percentage of shoots on substrates without mannose and methyl-3-0-glucose: 64
[5]; [11]
  regenerated shoots as a percentage of shoots on substrates without mannose and methyl-3-0-glucose: 86
[5]; [12]
  regenerated shoots as a percentage of shoots on substrates without mannose and methyl-3-0-glucose: 107
[5]; [13]
  regenerated shoots as a percentage of shoots on substrates without mannose and methyl-3-0-glucose: 200
[5]; [14]
  regenerated shoots as a percentage of shoots on substrates without mannose and methyl-3-0-glucose: 0
[5]; [15]
  regenerated shoots as a percentage of shoots on substrates without mannose and methyl-3-0-glucose: 0
[5]; [16]
  regenerated shoots as a percentage of shoots on substrates without mannose and methyl-3-0-glucose: 0
[5]; [17]
  regenerated shoots as a percentage of shoots on substrates without mannose and methyl-3-0-glucose: 64
[5]; [18]
  regenerated shoots as a percentage of shoots on substrates without mannose and methyl-3-0-glucose: 28
[5]; [19]
  regenerated shoots as a percentage of shoots on substrates without mannose and methyl-3-0-glucose: 36
[5]; [20]
  regenerated shoots as a percentage of shoots on substrates without mannose and methyl-3-0-glucose: 128
[5]; [21]
  regenerated shoots as a percentage of shoots on substrates without mannose and methyl-3-0-glucose: 86

## O=C(CCc1ccc(O)cc1)c1c(O)cc(O)cc1O[C@@H]1O[C@H](CO)[C@@H](O)[C@H](O)[C@H]1O [Phloridzin, phloridzin]
[6]; [22]
  GUS+ Shoots/Expl.: 1.2
  GUS+ Shoots/Sel. Shoots: 94.0%
[6]; [23]
  GUS+ Shoots/Expl.: 0.08
  GUS+ Shoots/Sel. Shoots: 100.0%
[6]; [24]
  GUS+ Shoots/Expl.: 0.5
  GUS+ Shoots/Sel. Shoots: 88.0%
[6]; [25]
  GUS+ Shoots/Expl.: 0.5
  GUS+ Shoots/Sel. Shoots: 78.5%
[6]; [26]
  GUS+ Shoots/Expl.: 0.5
  GUS+ Shoots/Sel. Shoots: 100.0%
[6]; [27]
  GUS+ Shoots/Expl.: 0.5
  GUS+ Shoots/Sel. Shoots: 95%
[6]; [28]
  GUS+ Shoots/Expl.: 0.03
  GUS+ Shoots/Sel. Shoots: 100%
[6]; mannose 12.5 g/l, second '+ Sucrose' column
  GUS+ Shoots/Expl.: 0.0
[6]; [29]
  GUS+ Shoots/Expl.: 0.03
  GUS+ Shoots/Sel. Shoots: 100%
[6]; mannose 15.0 g/l, second '+ Sucrose' column
  GUS+ Shoots/Expl.: 0.0

## C/C(=C\CNc1ncnc2[nH]cnc12)CO [Zeatin]
[1]
  Shoot formation, GUS-: + ("+" means shoot formation at concentrations below 250 μM)
[2]
  Shoot formation, GUS+: + ("+" means shoot formation at concentrations below 250 μM)
